Experimental data published in paper PMC6915869, “Immunosuppressive effects of a novel potassium channel toxin Ktx-Sp2 from Scorpiops Pocoki” (Cell & Bioscience, 2019).
“Also recorded” adds a separate entry of the source. Bridge positions count the residues as written; N and C are the ends. Peptide text beside a SMILES is read from it.

Legend:
[1] = target: T1, endogenous Kv1.3 expressed by human Jurkat T cells (Homo sapiens, UniProt P22001); assay: Whole-cell patch-clamp, endogenous Kv1.3 in Jurkat T cells; assay type: cell-based
T1 construct: endogenous Kv1.3 expressed by human Jurkat T cells; host or cells: Jurkat E6-1 T cells
Experimental: (§1) Mouse spinal columns were removed and placed in ice cold HBSS, then laminectomies were performed and bilateral DRG were dissected out. After removal of connective tissues, DRG were transferred to a 1 ml Ca^2+/Mg^2+-free HBSS containing 2 μl saturated NaHCO3, 0.35 mg L-cysteine and 20 U papain (Worthington, Lakewood, NJ, USA), and incubated at 37 °C for 10 min. The suspension of DRG was centrifuged, the supernatant was removed, 1 ml Ca^2+/Mg^2+-free HBSS containing 4 mg collagenase type II and 1.25 mg dispase type II (Worthington) was added and incubated at 37 °C for 10 min. After digestion, neurons were pelleted, suspended in neurobasal medium containing 2% B-27 supplement, 1% L-glutamine, 100 U/ml penicillin plus 100 μg/ml streptomycin, and 50 ng/ml nerve growth factor, plated on a 12 mm coverslip coated with poly-L-lysine (10 μg/ml) and cultured under a humidified atmosphere of 5% CO2/95% air at 37 °C for 18–24 h before use. Jurkat E6-1 T cells (ATCC TIB152) and HEK293T cells (ATCC ACS4500) were maintained in RPMI medium 1640 (Invitrogen, Carlsbad, CA, USA) and Dulbecco’s modified Eagle’s medium (DMEM) (Life Technologies,GrandIsland, NY, USA), supplemented with 10% fetal bovine serum (Life Technologies), 100 units/ml penicillin, 100 μg/ml streptomycin, respectively. Cells were cultured in a humidified incubator at 37 °C with 5% CO2. The cDNAs encoding mKv1.1, mKv1.2, mKv1.3, mNav1.4, mNav1.5 and mNav1.7 were subcloned into the XhoI/BamHI sites of a bicistronic vector, pIRES2-EGFP (Clontech, USA), then transiently transfected into HEK293-T cells using Lipofectamine 2000 (Invitrogen) for electrophysiological experiments.
Whole-cell patch-clamp recordings were performed using an EPC 9 amplifier (HEKA Elektronik, Lambrecht/Pfalz, Germany) at room temperature (22–24 °C). Pipettes pulled from borosilicate glass (BF 150-86-10; Sutter Instrument Company, Novato, CA, USA) had resistances of 2–4 MΩ when filled with the internal solution. The internal pipette solution for recording Kv currents contained: KCl 140 mM, MgCl2 1 mM, EGTA 1 mM, Na2ATP 3 mM, HEPES 10 mM (pH 7.3 with KOH); for recording Na currents contained: CsCl 100 mM, CsF 40 mM, MgCl2 2 mM, HEPES 10 mM, EGTA 10 mM, D-Glucose 10 mM, Na2ATP 3 mM (pH 7.3 with CsOH). The external solution for recording Kv currents contained: KCl 5 mM, NaCl 140 mM, HEPES 10 mM, CaCl2 2 mM, MgCl2 1 mM, D-Glucose 10 mM (pH 7.4 with NaOH); for recording Na currents contained: NaCl 132 mM, KCl 5.4 mM, CaCl2 1.8 mM, MgCl2 0.8 mM, HEPES 10 mM, D-Glucose 5 mM (pH 7.4 with NaOH). Kv currents were elicited by + 50 mV, 400 ms depolarizing pulse from the holding potential of − 60 mV every 20 s, and Na currents were elicited by + 10 mV, 100 ms depolarizing pulse from the holding potential of − 60 mV every 10 s. […]

[2] = tested on: Ca^2+ influx in Jurkat T cells; assay: Live cell Ca^2+ imaging (Fura-2) in Jurkat T cells; assay type: cell-based, human; conditions: for inhibition of Ca^2+ influx / free calcium concentration (in words): 10 μM Ktx-Sp2, 3 min pre-treatment, 10 μM CPA, then 2 mM Ca^2+
Experimental: Jurkat T cells were loaded with 4 μM Fura-2 AM (Life Technologies) for 60 min at 37 °C. Cells were then washed 3 times and incubated in Hank’s Balanced Salt Solution (HBSS) for 30 min at room temperature before use. Fluorescence at 340 nm and 380 nm excitation wavelengths was recorded on an inverted Nikon Ti-E microscope equipped with 340, 360 and 380 nm excitation filter wheels using NIS-Elements imaging software (Nikon Instruments Inc., Melville, NY, USA). Fura-2 ratios (F340/F380) reflect changes in [Ca^2+]i upon stimulation. Data were obtained from 100 to 250 cells in time-lapse images from each coverslip.
To test this hypothesis we performed live cell Ca^2+ imaging using the Ca^2+ indicator dye Fura-2 to determine the effect of Ktx-Sp2 on [Ca^2+]i in the presence of intracellular Ca^2+ store depletion by cyclopiazonic acid (CPA), an inhibitor of the sarcoplasmic reticulum Ca^2+-ATPase. […] When 2 mM Ca^2+ was added to the Ca^2+-free HBSS, we observed a large Ca^2+ influx into the cells. […] At 10 μM, Ktx-Sp2 decreased the F340/F380 ratio from 0.14 ± 0.02 to 0.05 ± 0.01 (n = 278) (Fig. 5b).

[3] = target: T2, mKv1.1 (Mus musculus, UniProt P16388); assay: Whole-cell patch-clamp, exogenous Kv1.1 in HEK293T cells; assay type: cell-based
T2 construct: expressed in transfected cells; host or cells: HEK293T, vector pIRES2-EGFP (bicistronic, EGFP not fused)
Experimental: as §1
Whole-cell patch-clamp recordings were performed using an EPC 9 amplifier (HEKA Elektronik, Lambrecht/Pfalz, Germany) at room temperature (22–24 °C). Pipettes pulled from borosilicate glass (BF 150-86-10; Sutter Instrument Company, Novato, CA, USA) had resistances of 2–4 MΩ when filled with the internal solution. […]

[4] = tested on: mNav1.7; assay: Whole-cell patch-clamp, exogenous Nav1.7 in HEK293T cells; assay type: cell-based; conditions: 1 μM, +10 mV 100 ms pulse from -60 mV every 10 s
Experimental: as §1, with “The cDNAs encoding mKv1.1, mKv1.2, mKv1.3, mNav1.4, mNav1.5 and mNav1.7 were subcloned into the XhoI/BamHI sites of a bicistronic vector, pIRES2-EGFP (Clontech, USA), then transiently transfected into HEK293-T cells using Lipofectamine 2000 (Invitrogen) for electrophysiological experiments.” left out

T1 sequence (P22001 whole entry): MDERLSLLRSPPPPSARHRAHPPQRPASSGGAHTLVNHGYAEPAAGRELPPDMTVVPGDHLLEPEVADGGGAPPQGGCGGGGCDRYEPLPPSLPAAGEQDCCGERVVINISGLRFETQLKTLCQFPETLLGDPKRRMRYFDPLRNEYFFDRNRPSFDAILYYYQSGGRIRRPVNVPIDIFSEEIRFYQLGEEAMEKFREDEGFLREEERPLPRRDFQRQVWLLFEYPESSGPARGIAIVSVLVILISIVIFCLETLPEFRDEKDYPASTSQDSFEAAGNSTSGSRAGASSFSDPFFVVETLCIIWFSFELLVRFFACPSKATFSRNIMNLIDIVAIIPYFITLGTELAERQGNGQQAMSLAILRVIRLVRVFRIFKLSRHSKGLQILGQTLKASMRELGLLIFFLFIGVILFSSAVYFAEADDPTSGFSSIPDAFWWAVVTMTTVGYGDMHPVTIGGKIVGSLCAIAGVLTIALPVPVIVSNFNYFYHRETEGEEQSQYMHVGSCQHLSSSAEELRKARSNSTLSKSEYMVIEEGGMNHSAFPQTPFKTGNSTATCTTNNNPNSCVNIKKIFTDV
T2 sequence (P16388 whole entry, the tested form may be a part): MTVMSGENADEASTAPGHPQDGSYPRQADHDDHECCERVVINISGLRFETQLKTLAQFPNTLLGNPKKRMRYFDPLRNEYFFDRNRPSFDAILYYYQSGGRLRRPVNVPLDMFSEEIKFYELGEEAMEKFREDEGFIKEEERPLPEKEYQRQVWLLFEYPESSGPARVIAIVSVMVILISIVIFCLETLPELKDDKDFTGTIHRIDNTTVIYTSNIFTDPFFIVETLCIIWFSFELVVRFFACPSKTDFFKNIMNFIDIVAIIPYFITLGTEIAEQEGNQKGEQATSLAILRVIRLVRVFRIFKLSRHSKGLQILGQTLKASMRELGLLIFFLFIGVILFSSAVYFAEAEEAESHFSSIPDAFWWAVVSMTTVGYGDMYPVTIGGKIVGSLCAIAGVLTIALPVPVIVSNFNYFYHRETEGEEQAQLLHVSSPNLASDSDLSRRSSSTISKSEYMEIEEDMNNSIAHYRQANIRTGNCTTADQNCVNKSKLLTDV

CSCC[C@@H]1NC(=O)[C@@H]2CSSC[C@H](NC(=O)[C@H](CCCCN)NC(=O)[C@H](C)NC(=O)CNC(=O)[C@H](Cc3c[nH]cn3)NC(=O)[C@H](CC(C)C)NC(=O)[C@@H]3CCCN3C(=O)[C@@H](N)CO)C(=O)N[C@@H](CO)C(=O)N[C@@H](CO)C(=O)N[C@@H](CO)C(=O)N[C@@H](CC(N)=O)C(=O)N[C@@H](CCC(N)=O)C(=O)N[C@H]3CSSC[C@H](NC(=O)[C@H](CCCNC(=N)N)NC(=O)CNC(=O)[C@H](CC(N)=O)NC1=O)C(=O)N[C@@H](CCCNC(=N)N)C(=O)N[C@H](C(=O)N[C@@H](Cc1ccc(O)cc1)C(=O)NCC(=O)O)CSSC[C@H](NC(=O)[C@@H]1CCCN1C(=O)[C@H](CCCNC(=N)N)NC(=O)[C@H]([C@@H](C)O)NC3=O)C(=O)N[C@@H](CCCNC(=N)N)C(=O)N[C@@H](Cc1ccc(O)cc1)C(=O)NCC(=O)NCC(=O)NCC(=O)N[C@@H]([C@@H](C)O)C(=O)N[C@@H](Cc1c[nH]cn1)C(=O)NCC(=O)N[C@@H](CCCCN)C(=O)N2 [Ktx-Sp2] (H-SPLHGAKCSSSNQCTRPCRYGGGTHGKCMNGRCRCYG-OH; disulfide 8-28, 14-33, 18-35 (inferred); N-terminus and C-terminus assumed)
blocking of endogenous Kv1.3 in Jurkat T cells (in words) [1]: effectively block endogenous Kv1.3; also recorded: equivalent to the exogenous expression Kv1.3 on the HEK293T cell membrane | reduction of Kv1.3 current ([1]; 30 nM, bath application, n = 5, +50 mV 400 ms pulse from -60 mV, almost zero cytosolic Ca^2+): about 50% | IC50 ([1]; +50 mV 400 ms pulse from -60 mV, almost zero cytosolic Ca^2+, currents normalized to control, Hill equation, read-out: IC50 for Kv1.3 current in Jurkat T cells): 29.1 ± 1.12 nM | reversibility of suppressive effect on Kv1.3 current after washout ([1]; bath application, washout): partially reversible after washout | inhibition of Ca^2+ influx / free calcium concentration (in words) [2]: significantly reduce the free calcium concentration in Jurkat T cells; also recorded: obvious inhibition of Ca^2+ influx | inhibition of Ca^2+ influx / free calcium concentration (in words) ([2]; listed as Ktx-sp2): effectively reduce the concentration of free Ca^2+ in Jurkat T cells | F340/F380 ratio (net change induced by 2 mM extracellular Ca^2+) ([2]; 10 μM Ktx-Sp2, pre-treatment 3 min, store depletion by 10 μM CPA, decreased from 0.14 ± 0.02 without peptide, n = 278, ****P ≤ 0.0001): 0.05 ± 0.01 | IC50 ([3]; +50 mV 400 ms pulse from -60 mV every 20 s, room temperature (22–24 °C), mean ± SEM): 485 ± 25.5 nM | blocking activity on Kv1.3 relative to Kv1.1 (Discussion) ([3]; Discussion section): 33 times | blocking of Kv1.1 (in words) ([3]; exogenous channel): effectively block | effect on Nav1.7 [4]: almost had no effect
